Laboratory results published in patent US7745492B2, “Carboxamido opioid compounds” (Janssen Pharmaceutical, priority 2004, dated 2010).

What was measured:
[1] = Glucuronidation in human liver microsomes; type: in vitro ADME; settings: in vitro
[2] = biological target: recombinant human P450 2D6 (Homo sapiens, UniProt P10635); assay: Recombinant human P450 isoform inhibition, 2D6; type: in vitro ADME
Experimental: (§1) In a study using recombinant human P450 isoforms, the compound was only a weak inhibitor (IC50>10 μM) of all isoforms tested, 3A4, 2D6, 2C9, 2C19, and 1A2.

[3] = biological target: recombinant human P450 3A4 (Homo sapiens, UniProt P08684); assay: Recombinant human P450 isoform inhibition, 3A4; type: in vitro ADME
recombinant human P450 3A4, sequence (P08684 whole entry, canonical isoform): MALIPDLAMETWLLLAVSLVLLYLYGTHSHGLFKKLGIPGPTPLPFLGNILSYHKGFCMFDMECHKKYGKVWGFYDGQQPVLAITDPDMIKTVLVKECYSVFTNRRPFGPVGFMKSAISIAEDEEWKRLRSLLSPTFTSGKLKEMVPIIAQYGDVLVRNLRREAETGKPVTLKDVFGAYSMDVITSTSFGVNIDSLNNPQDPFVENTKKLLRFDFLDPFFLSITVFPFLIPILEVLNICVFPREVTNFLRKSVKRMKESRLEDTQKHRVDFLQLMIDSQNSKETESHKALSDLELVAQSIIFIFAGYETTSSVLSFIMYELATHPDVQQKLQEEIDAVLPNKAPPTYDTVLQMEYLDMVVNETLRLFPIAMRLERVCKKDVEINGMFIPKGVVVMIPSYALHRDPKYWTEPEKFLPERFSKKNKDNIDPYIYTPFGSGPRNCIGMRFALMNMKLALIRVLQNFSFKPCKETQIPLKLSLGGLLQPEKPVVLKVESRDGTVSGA
Experimental: as §1

[4] = Metabolic stability in rat liver microsomes; type: in vitro ADME; settings: 10 min incubation
Experimental: (§2) The metabolic stability of Compound 3 was investigated using several approaches. The compound was incubated with liver microsomes from mouse, rat, dog and human and the percent of compound remaining after ten min quantified. The compound was metabolically robust in all species tested.

[5] = Metabolic stability in dog liver microsomes; type: in vitro ADME; settings: 10 min incubation
Experimental: as §2

[6] = biological target: recombinant human P450 2C19 (Homo sapiens, UniProt P33261); assay: Recombinant human P450 isoform inhibition, 2C19; type: in vitro ADME
recombinant human P450 2C19, sequence (P33261 whole entry, canonical isoform): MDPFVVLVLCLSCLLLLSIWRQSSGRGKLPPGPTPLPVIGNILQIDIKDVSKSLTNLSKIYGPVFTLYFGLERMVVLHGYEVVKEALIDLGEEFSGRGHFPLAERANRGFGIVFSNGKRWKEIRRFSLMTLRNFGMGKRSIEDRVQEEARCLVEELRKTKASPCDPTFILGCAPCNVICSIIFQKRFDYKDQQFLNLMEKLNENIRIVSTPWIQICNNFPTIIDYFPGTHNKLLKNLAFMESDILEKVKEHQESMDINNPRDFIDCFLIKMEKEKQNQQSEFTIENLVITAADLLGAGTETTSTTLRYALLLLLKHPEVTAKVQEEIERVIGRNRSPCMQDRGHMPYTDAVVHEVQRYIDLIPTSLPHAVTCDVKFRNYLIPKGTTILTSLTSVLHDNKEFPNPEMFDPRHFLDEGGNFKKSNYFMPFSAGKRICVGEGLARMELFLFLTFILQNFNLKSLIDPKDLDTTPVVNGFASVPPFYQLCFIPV
Experimental: as §1

mu opioid receptor = biological target: T1, mu opioid receptor (Rattus norvegicus, UniProt P33535); assay: Rat brain mu opioid receptor binding assay ([3H]DAMGO); settings: rat forebrain membranes, 25° C.
T1 construct: from tissue; host or cells: rat forebrain membrane (particulate) preparation
T1 sequence (P33535 whole entry): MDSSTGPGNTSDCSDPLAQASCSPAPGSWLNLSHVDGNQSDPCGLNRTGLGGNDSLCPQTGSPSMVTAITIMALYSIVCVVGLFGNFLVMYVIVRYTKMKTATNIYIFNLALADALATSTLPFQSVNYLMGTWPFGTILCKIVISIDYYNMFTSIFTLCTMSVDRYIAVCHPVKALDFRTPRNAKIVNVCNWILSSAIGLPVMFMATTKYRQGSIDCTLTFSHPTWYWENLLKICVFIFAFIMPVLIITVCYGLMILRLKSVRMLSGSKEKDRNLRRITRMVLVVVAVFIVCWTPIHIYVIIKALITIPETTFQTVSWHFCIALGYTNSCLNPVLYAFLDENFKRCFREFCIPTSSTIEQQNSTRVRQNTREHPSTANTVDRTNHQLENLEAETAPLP
Experimental: Rat Brain Mu and Delta Opioid Receptor Binding Assay
Male, Wistar rats (150-250 g, VAF, Charles River, Kingston, N.Y.) were killed by cervical dislocation and their brains removed and placed immediately in ice cold Tris HCl buffer (50 mM, pH 7.4). The forebrains were separated from the remainder of the brain by a coronal transection, beginning dorsally at the colliculi and passing ventrally through the midbrain-pontine junction. After dissection, the forebrains were homogenized in Tris buffer in a Teflon®-glass homogenizer. The homogenate was diluted to a concentration of 1 g of forebrain tissue per 100 mL Tris buffer and centrifuged at 39,000×G for 10 min. The pellet was resuspended in the same volume of Tris buffer with several brief pulses from a Polytron homogenizer. This particulate preparation was used for the opioid receptor binding assays. Following incubation with the mu opioid selective peptide ligand [^3H]DAMGO or the delta opioid selective ligand [^3H]DPDPE at 25° C., the tube contents were filtered through Whatman GF/B filter sheets on a Brandel cell harvester. The tubes and filters were rinsed three times with 4 mL of 10 mM HEPES (pH 7.4) and the radioactivity associated with the filter circles determined using Formula 989 scintillation fluid (New England Nuclear, Boston, Mass.) in a scintillation counter.
The data were used to calculate a Ki value, using GraphPad Prism.

[7] = Metabolic stability in mouse liver microsomes; type: in vitro ADME; settings: 10 min incubation
Experimental: as §2

Male Sprague Dawley rats = assay: Spinal nerve ligation (SNL) model of neuropathic pain, mechanical allodynia (Von Frey); type: in vivo; settings: rat, at 2 h
Experimental: Spinal Nerve Ligation (SNL) Model of Neuropathic Pain
Male Sprague Dawley rats weighing 145 to 165 g (approximately 6 weeks of age) were obtained from Harlan (Indianapolis, Ind.). Food and water were provided ad lib and a 12 h light and 12 h dark cycle were maintained. Animals were group housed under specific pathogen-free, barrier maintained environment and were allowed to acclimate for no less than 1 week. Following surgery, animals were housed individually in solid bottom polycarbonate cages with automatic watering devices at 22° C. and a relative humidity of 60%. All animals received Harland Tekland Diet # 8604.
Anesthesia was induced using isoflurane (IsoVet™) inhalant in an induction chamber (3-5% in 2 L/min of O2). Once recumbent, the animal was removed and placed into a nose cone which delivered inhalant isoflurane (0.5-2.5% at 2 L/min Of O2). The dorsal pelvic area was shaved and scrubbed aseptically with chlorhexidine scrub, 70% alcohol, and a 5% chlorhexidine solution. The animal was held in ventral recumbency on a heating pad, and the surgical procedure described by Kim and Chung (1992) was performed. The left paraspinal muscles were separated from the spinous processes at the level of Lumbar 4 to Sacral 2 (L4-S2). Once the musculature was retracted, the L6 transverse process was removed using a small rongeur. L4 and L5 spinal nerves could then be visualized. L5 was then isolated and ligated using 6-0 silk suture material. Warm saline and a dose of long-acting antibiotic was administered immediately post-op before recovery form anesthesia.
At least one week following surgery, animals were individually placed in a Lucite testing chamber with a wire mesh bottom. Mechanical (tactile) allodynia was measured by recording the pressure at which the affected paw was withdrawn from graded stimuli (Von Frey hairs ranging from 4.0 to 148.1 mN equivalent to 0.25 to 15 g of pressure) applied to the plantar surface of the paw (between the footpads) according to the procedure of Chaplan et. al (1994) in order to calculate paw withdrawal threshold (PWT). Normal rats can withstand at least 15 g of pressure without responding. SNL rats can respond to as little as 0.25 g of pressure. Rats were included in this study only if their PWT was below 4.0 g.
Animals were used for compound testing between 2 weeks and 8 weeks post-operatively. Animals were always pre-tested for baseline withdrawal threshold on the day of testing. Following a 16 h fast, PWT was evaluated at 30 min, 1 h, 2 h, and 4 h post-dosing. Dose-response studies were conducted at the time of peak effect. Studies were conducted in a blinded manner.
Data were normalized and results were presented as % MPE (maximum possible effect) of the drug.

recombinant human P450 2D6, sequence (P10635 whole entry, canonical isoform): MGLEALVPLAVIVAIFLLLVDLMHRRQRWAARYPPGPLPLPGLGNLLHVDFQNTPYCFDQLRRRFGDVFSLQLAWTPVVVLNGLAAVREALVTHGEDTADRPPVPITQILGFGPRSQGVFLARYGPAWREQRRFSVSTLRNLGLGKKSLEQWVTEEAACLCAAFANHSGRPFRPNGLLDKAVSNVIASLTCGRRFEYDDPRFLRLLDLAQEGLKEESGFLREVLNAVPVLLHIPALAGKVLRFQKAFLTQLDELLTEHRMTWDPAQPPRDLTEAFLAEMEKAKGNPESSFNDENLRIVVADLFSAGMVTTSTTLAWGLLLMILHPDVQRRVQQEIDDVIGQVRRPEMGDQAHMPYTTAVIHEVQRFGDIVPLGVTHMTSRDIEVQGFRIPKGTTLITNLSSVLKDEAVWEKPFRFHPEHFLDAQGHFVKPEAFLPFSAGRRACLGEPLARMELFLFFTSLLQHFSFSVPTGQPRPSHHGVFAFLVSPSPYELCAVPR

What does the source list for CN(C)C[C@H]1CCCC[C@]1(O)c1cccc(C(N)=O)c1 (single isomer, unassigned) [Cpd 3]?
Glucuronidation [1]: no glucuronidation of the compound was detected; IC50 [2]: > 10 µM; IC50 [3]: > 10 µM; % remaining after 10 min [4]: 94.5%; % remaining after 10 min [5]: 92.6%; IC50 [6]: > 10 µM; Ki (mu opioid receptor): 0.0155 µM; % remaining after 10 min [7]: 88.2%; ED50 (Male Sprague Dawley rats): 17 mg/kg
